One may read the IC50 as the concentration that gives 50% inhibition.

For the assay, the target named is T1, mTOR (Homo sapiens, UniProt P42345).
T1 construct: purchased Invitrogen PR8683A
T1 sequence (P42345 1360-2549 limits assumed): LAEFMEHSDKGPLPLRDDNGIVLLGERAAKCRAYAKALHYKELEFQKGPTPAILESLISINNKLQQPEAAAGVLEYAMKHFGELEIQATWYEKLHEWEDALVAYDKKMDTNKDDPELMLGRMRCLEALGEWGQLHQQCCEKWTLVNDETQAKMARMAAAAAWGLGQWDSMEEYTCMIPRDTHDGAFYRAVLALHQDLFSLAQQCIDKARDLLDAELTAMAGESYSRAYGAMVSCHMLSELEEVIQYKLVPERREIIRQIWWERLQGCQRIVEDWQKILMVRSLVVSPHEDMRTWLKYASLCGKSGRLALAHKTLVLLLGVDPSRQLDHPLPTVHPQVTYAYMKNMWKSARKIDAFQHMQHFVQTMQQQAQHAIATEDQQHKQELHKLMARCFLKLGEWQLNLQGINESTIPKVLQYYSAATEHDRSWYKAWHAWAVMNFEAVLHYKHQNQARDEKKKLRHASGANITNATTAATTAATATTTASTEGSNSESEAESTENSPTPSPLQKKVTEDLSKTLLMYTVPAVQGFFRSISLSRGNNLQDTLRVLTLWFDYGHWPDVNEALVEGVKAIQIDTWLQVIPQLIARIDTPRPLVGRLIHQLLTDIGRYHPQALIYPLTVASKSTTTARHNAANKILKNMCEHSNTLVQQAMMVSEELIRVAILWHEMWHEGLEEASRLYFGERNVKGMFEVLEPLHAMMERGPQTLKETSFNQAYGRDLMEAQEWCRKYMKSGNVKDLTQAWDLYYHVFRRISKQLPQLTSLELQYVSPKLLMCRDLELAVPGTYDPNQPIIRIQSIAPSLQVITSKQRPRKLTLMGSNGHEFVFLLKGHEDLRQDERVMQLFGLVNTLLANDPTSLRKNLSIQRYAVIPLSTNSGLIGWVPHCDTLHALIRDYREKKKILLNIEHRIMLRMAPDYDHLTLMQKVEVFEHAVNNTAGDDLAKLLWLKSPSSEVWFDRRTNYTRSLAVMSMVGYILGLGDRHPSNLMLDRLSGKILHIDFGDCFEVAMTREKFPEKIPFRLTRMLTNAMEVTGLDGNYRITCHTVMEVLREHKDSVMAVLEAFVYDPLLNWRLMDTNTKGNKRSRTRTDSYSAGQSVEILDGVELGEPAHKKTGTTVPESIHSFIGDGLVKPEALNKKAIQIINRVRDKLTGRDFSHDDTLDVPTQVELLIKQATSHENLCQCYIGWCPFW
Put plainly: mTOR HTR-FRET assay. It counts as biochemical. Particulars: read-out: Act. Level (IC50 in mTor HTR-FRET assay). The procedure, abridged:
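Test compounds, taken from 10 mM DMSO stocks and diluted, were mixed with mTOR enzyme (0.200 μg/mL) in Tris buffer pH 7.4 with 100 mM NaCl, 0.1% Tween-20 and 1 mM DTT. ATP/substrate addition initiated the reaction, alongside compound-free controls.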
Consider `COCCN1C(=O)CNc2ncc(-c3ccc(-c4nc[nH]n4)nc3)nc21` [Example 163, 7-(6-(1H-1,2,4-triazol-3-yl)pyridin-3-yl)-1-(2-methoxyethyl)-3,4-dihydropyrazino[2,3-b]pyrazin-2(1H)-one], for which the 50% inhibitory concentration (IC50) lay in the range of 0.005 to 250 nM. In the case of `CCN1C(=O)CNc2ncc(-c3ccc(-c4nc[nH]n4)nc3)nc21` [Example 164, 7-(6-(1H-1,2,4-triazol-3-yl)pyridin-3-yl)-1-ethyl-3,4-dihydropyrazino[2,3-b]pyrazin-2(1H)-one], the IC50 is 0.005 to 250 nM. In the case of `Cc1cc(-c2nc[nH]n2)c(F)cc1-c1cnc2c(n1)N(C[C@H]1CC[C@@H](O)CC1)C(=O)CN2` [Example 165, 7-(5-fluoro-2-methyl-4-(1H-1,2,4-triazol-3-yl)phenyl)-1-((cis-4-hydroxycyclohexyl)methyl)-3,4-dihydropyrazino[2,3-b]pyrazin-2(1H)-one], the IC50 fell in the range of 0.005 to 250 nM. Turning to `Cc1cc(-c2nc[nH]n2)c(F)cc1-c1cnc2c(n1)N(C1CCOCC1)C(=O)CN2` [Example 166, 7-(5-fluoro-2-methyl-4-(1H-1,2,4-triazol-3-yl)phenyl)-1-(tetrahydro-2H-pyran-4-yl)-3,4-dihydropyrazino[2,3-b]pyrazin-2(1H)-one], the half-maximal inhibitory concentration (IC50) is 0.005 to 250 nM. For the molecule `O=C1CNc2ncc(-c3cccc4[nH]ccc34)nc2N1CCC1CCOCC1` [Example 167, 7-(1H-indol-4-yl)-1-(2-(tetrahydro-2H-pyran-4-yl)ethyl)-3,4-dihydropyrazino[2,3-b]pyrazin-2(1H)-one], the IC50 was 250 to 500 nM. In the case of `Cc1cc(-c2nc[nH]n2)c(F)cc1-c1cnc2c(n1)N(C[C@H]1CC[C@H](O)CC1)C(=O)CN2` [Example 168, 7-(5-fluoro-2-methyl-4-(1H-1,2,4-triazol-3-yl)phenyl)-1-((trans-4-hydroxycyclohexyl)methyl)-3,4-dihydropyrazino[2,3-b]pyrazin-2(1H)-one], the IC50 lay within 0.005 to 250 nM. On to `O=C1CNc2ncc(-c3ccc(-c4nc[nH]n4)nc3)nc2N1C[C@H]1CC[C@@H](O)CC1` [Example 169, 7-(6-(1H-1,2,4-triazol-3-yl)pyridin-3-yl)-1-((cis-4-hydroxycyclohexyl)methyl)-3,4-dihydropyrazino[2,3-b]pyrazin-2(1H)-one], for which the IC50 lay within 0.005 to 250 nM. Take `O=C1CNc2ncc(-c3ccc(-c4nc[nH]n4)nc3)nc2N1[C@H]1CC[C@H](O)CC1` [Example 170, 7-(6-(1H-1,2,4-triazol-3-yl)pyridin-3-yl)-1-(trans-4-hydroxycyclohexyl)-3,4-dihydropyrazino[2,3-b]pyrazin-2(1H)-one]: the IC50 lay in the range of 0.005 to 250 nM.

For `CO[C@H]1CC[C@H](N2C(=O)CNc3ncc(-c4ccc(-c5nc[nH]n5)nc4)nc32)CC1` [Example 171, 7-(6-(1H-1,2,4-triazol-3-yl)pyridin-3-yl)-1-(trans-4-methoxycyclohexyl)-3,4-dihydropyrazino[2,3-b]pyrazin-2(1H)-one], the half-maximal inhibitory concentration (IC50) lay within 0.005 to 250 nM.

As to `CC(C)N1C(=O)CNc2ncc(-c3ccc(-c4nc[nH]n4)nc3)nc21` [Example 172, 7-(6-(1H-1,2,4-triazol-3-yl)pyridin-3-yl)-1-isopropyl-3,4-dihydropyrazino[2,3-b]pyrazin-2(1H)-one], the IC50 fell in the range of 0.005 to 250 nM. For `CO[C@H]1CC[C@H](N2C(=O)CNc3ncc(-c4cc(F)c(-c5nc[nH]n5)cc4C)nc32)CC1` [Example 173, 7-(5-fluoro-2-methyl-4-(1H-1,2,4-triazol-3-yl)phenyl)-1-(trans-4-methoxycyclohexyl)-3,4-dihydropyrazino[2,3-b]pyrazin-2(1H)-one], the IC50 was 0.005 to 250 nM. Take `Cc1cc(-c2nc[nH]n2)c(F)cc1-c1cnc2c(n1)N([C@H]1CC[C@H](O)CC1)C(=O)CN2` [Example 174, 7-(5-fluoro-2-methyl-4-(1H-1,2,4-triazol-3-yl)phenyl)-1-(trans-4-hydroxycyclohexyl)-3,4-dihydropyrazino[2,3-b]pyrazin-2(1H)-one]: the IC50 was 0.005 to 250 nM. For the molecule `COCCN1C(=O)CNc2ncc(-c3cc(F)c(-c4nc[nH]n4)cc3C)nc21` [Example 175, 7-(5-fluoro-2-methyl-4-(1H-1,2,4-triazol-3-yl)phenyl)-1-(2-methoxyethyl)-3,4-dihydropyrazino[2,3-b]pyrazin-2(1H)-one], the 50% inhibitory concentration (IC50) lay within 0.005 to 250 nM. With `Cc1cc(-c2nc[nH]n2)c(F)cc1-c1cnc2c(n1)N(C(C)C)C(=O)CN2` [Example 176, 7-(5-fluoro-2-methyl-4-(1H-1,2,4-triazol-3-yl)phenyl)-1-isopropyl-3,4-dihydropyrazino[2,3-b]pyrazin-2(1H)-one], the IC50 lay in the range of 0.005 to 250 nM. Take `CCN1C(=O)CNc2ncc(-c3cc(F)c(-c4nc[nH]n4)cc3C)nc21` [Example 177, 1-ethyl-7-(5-fluoro-2-methyl-4-(1H-1,2,4-triazol-3-yl)phenyl)-3,4-dihydropyrazino[2,3-b]pyrazin-2(1H)-one]: the half-maximal inhibitory concentration (IC50) was 0.005 to 250 nM. For `O=C1CNc2ncc(-c3ccnc(O)c3)nc2N1CCC1CCOCC1` [Example 178, 7-(2-hydroxypyridin-4-yl)-1-(2-(tetrahydro-2H-pyran-4-yl)ethyl)-3,4-dihydropyrazino[2,3-b]pyrazin-2(1H)-one], the half-inhibitory concentration (IC50) lay within 500 to 1000 nM.

Take `Cc1cc(-c2nc[nH]n2)ncc1-c1cnc2c(n1)N(C(C)C)C(=O)CN2` [Example 179, 1-isopropyl-7-(4-methyl-6-(1H-1,2,4-triazol-3-yl)pyridin-3-yl)-3,4-dihydropyrazino[2,3-b]pyrazin-2(1H)-one]: the IC50 lay in the range of 0.005 to 250 nM. In the case of `Cc1cc(C(N)=O)ncc1-c1cnc2c(n1)N(C(C)C)C(=O)CN2` [Example 180, 5-(8-isopropyl-7-oxo-5,6,7,8-tetrahydropyrazino[2,3-b]pyrazin-2-yl)-4-methylpicolinamide], the IC50 lay within 0.005 to 250 nM. Take `O=C1CNc2ncc(-c3cccc4[nH]ncc34)nc2N1CCC1CCOCC1` [Example 181, 7-(1H-indazol-4-yl)-1-(2-(tetrahydro-2H-pyran-4-yl)ethyl)-3,4-dihydropyrazino[2,3-b]pyrazin-2(1H)-one]: the IC50 was 0.005 to 250 nM. In the case of `Nc1ncc(-c2cnc3c(n2)N(CCC2CCOCC2)C(=O)CN3)cn1` [Example 182, 7-(2-aminopyrimidin-5-yl)-1-(2-(tetrahydro-2H-pyran-4-yl)ethyl)-3,4-dihydropyrazino[2,3-b]pyrazin-2(1H)-one], the 50% inhibitory concentration (IC50) was in the range of 250 to 500 nM. The result for `Nc1cc(-c2cnc3c(n2)N(CCC2CCOCC2)C(=O)CN3)ccn1` [Example 183, 7-(2-aminopyridin-4-yl)-1-(2-(tetrahydro-2H-pyran-4-yl)ethyl)-3,4-dihydropyrazino[2,3-b]pyrazin-2(1H)-one] reads 500 to 1000 nM; that for `CNc1ccc(-c2cnc3c(n2)N(CCC2CCOCC2)C(=O)CN3)cn1` [Example 184, 7-(6-(methylamino)pyridin-3-yl)-1-(2-(tetrahydro-2H-pyran-4-yl)ethyl)-3,4-dihydropyrazino[2,3-b]pyrazin-2(1H)-one], 0.005 to 250 nM; that for `O=C1CNc2ncc(-c3ccc(O)nc3)nc2N1CCC1CCOCC1` [Example 185, 7-(6-hydroxypyridin-3-yl)-1-(2-(tetrahydro-2H-pyran-4-yl)ethyl)-3,4-dihydropyrazino[2,3-b]pyrazin-2(1H)-one], 1000 to 10000 nM. On to `COCCN1C(=O)CNc2ncc(-c3ccc(-c4cc[nH]n4)cc3)nc21` [Example 186, 7-(4-(1H-pyrazol-3-yl)phenyl)-1-(2-methoxyethyl)-3,4-dihydropyrazino[2,3-b]pyrazin-2(1H)-one], for which the IC50 lay in the range of 0.005 to 250 nM.

Turning to `O=C1CNc2ncc(-c3cccnc3)nc2N1CCC1CCOCC1` [Example 187, 7-(pyridin-3-yl)-1-(2-(tetrahydro-2H-pyran-4-yl)ethyl)-3,4-dihydropyrazino[2,3-b]pyrazin-2(1H)-one], the concentration for half-maximal inhibition (IC50) is 500 to 1000 nM. With `COCCN1C(=O)CNc2ncc(-c3cccc4[nH]ncc34)nc21` [Example 188, 7-(1H-indazol-4-yl)-1-(2-methoxyethyl)-3,4-dihydropyrazino[2,3-b]pyrazin-2(1H)-one], the IC50 was in the range of 1000 to 10000 nM. As for `COCCN1C(=O)CNc2ncc(-c3ccc4cn[nH]c4c3)nc21` [Example 189, 7-(1H-indazol-6-yl)-1-(2-methoxyethyl)-3,4-dihydropyrazino[2,3-b]pyrazin-2(1H)-one], the IC50 is 1000 to 10000 nM. `O=C1CNc2ncc(-c3cncnc3)nc2N1CCC1CCOCC1` [Example 190, 7-(pyrimidin-5-yl)-1-(2-(tetrahydro-2H-pyran-4-yl)ethyl)-3,4-dihydropyrazino[2,3-b]pyrazin-2(1H)-one]: the IC50 lay within 1000 to 10000 nM.

For the molecule `COc1ccc(-c2cnc3c(n2)N(CCC2CCOCC2)C(=O)CN3)cn1` [Example 191, 7-(6-methoxypyridin-3-yl)-1-(2-(tetrahydro-2H-pyran-4-yl)ethyl)-3,4-dihydropyrazino[2,3-b]pyrazin-2(1H)-one], the half-maximal inhibitory concentration (IC50) is 500 to 1000 nM. As for `COCCN1C(=O)CNc2ncc(-c3cnc4[nH]ccc4c3)nc21` [Example 192, 1-(2-methoxyethyl)-7-(1H-pyrrolo[2,3-b]pyridin-5-yl)-3,4-dihydropyrazino[2,3-b]pyrazin-2(1H)-one], the 50% inhibitory concentration (IC50) was in the range of 0.005 to 250 nM. For the molecule `CCN1C(=O)CNc2ncc(-c3cnc4[nH]ccc4c3)nc21` [Example 193, 1-ethyl-7-(1H-pyrrolo[2,3-b]pyridin-5-yl)-3,4-dihydropyrazino[2,3-b]pyrazin-2(1H)-one], the 50% inhibitory concentration (IC50) fell in the range of 250 to 500 nM. The result for `CCN1C(=O)CNc2ncc(-c3cccc4[nH]ncc34)nc21` [Example 194, 1-ethyl-7-(1H-indazol-4-yl)-3,4-dihydropyrazino[2,3-b]pyrazin-2(1H)-one] reads 1000 to 10000 nM; that for `O=C1CNc2ncc(-c3ccncc3)nc2N1CCC1CCOCC1` [Example 195, 7-(pyridin-4-yl)-1-(2-(tetrahydro-2H-pyran-4-yl)ethyl)-3,4-dihydropyrazino[2,3-b]pyrazin-2(1H)-one], 1000 to 10000 nM; that for `Nc1ccc(-c2cnc3c(n2)N(CCC2CCOCC2)C(=O)CN3)cn1` [Example 196, 7-(6-aminopyridin-3-yl)-1-(2-(tetrahydro-2H-pyran-4-yl)ethyl)-3,4-dihydropyrazino[2,3-b]pyrazin-2(1H)-one], 0.005 to 250 nM.

Source of the values: patent publication US11292796B2 (SIGNAL PHARMACEUTICALS, LLC, priority 2008, dated 2022).
